Assay results from patent publication US20230276832A1, “ULTRASONIC PREPARATION METHOD OF PROTEIN-DERIVED PEPTIDE-POLYSACCHARIDE NANOPARTICLES LOADED WITH BIOACTIVE COMPONENTS” (JIANGSU UNIVERSITY, priority 2021, published 2023).

Key:
[1] = DPPH free radical scavenging method; type: biochemical; conditions: 100 μM DPPH, 30 min in dark
Experimental: A 100 μM solution of DPPH (as-is) was prepared in dark using absolute ethanol. A volume of 2 mL DPPH solution was taken out and mixed well with 2 mL of sample solution, and allowed to react in dark at room temperature for 30 min. The absorbance at 517 nm of the mixture was measured using a UV-visible spectrophotometer. Distilled water and absolute ethanol were served as blank controls instead of samples. The formula for calculating the DPPH free radical scavenging rate of the sample was as follows:
Wherein, A0 represents blank; A1 is the sample with ethanol; A2 is the sample with DPPH solution.

[2] = Solubility of quercetin in water; type: physicochemical
Experimental: Determination method: The quercetin concentration in the quercetin-loaded composite nanoparticle dispersion liquid was determined in the same manner as described in the examples, and calculation was done using the standard curve and dilution ratio. And the solubility of quercetin in water was calculated according to the following formula:
Solubility (μg/mL)=detected quercetin concentration×dilution factor

[3] = Release of quercetin during in vitro gastrointestinal digestion simulation; type: in vitro ADME; conditions: for release rate of quercetin: simulated gastric digestion
Experimental: Experimental method: The pH of 40 mL of freshly prepared free quercetin and quercetin composite nanoparticles dispersion was adjusted to 2.0 with 1 M HCl. After 10 min of preheating in a shaker (37° C., 100 rpm/min), 26.7 mg of pepsin was added and thoroughly mixed for 1 h to initiate simulated gastric digestion. After 1 h of digestion at 37° C., the pH of the pepsin digest was adjusted to 7.4 using 5 M NaOH. 200 mg of bile salts were added and mixed well in a shaker for 10 min. Then 13.6 mg of trypsin was added to start simulated intestinal digestion for 2 h. During the simulated gastrointestinal digestion process, 3 mL of digestion samples were collected at different digestion time (0, 30, 60, 90, 120, 150 and 180 min), and the enzyme was immediately inactivated with liquid nitrogen to terminate the reaction. The content of quercetin was determined, and the release rate (%) of quercetin was calculated according to the following formula: […]

[4] = Effect of temperature on stability of quercetin (retention rate); type: physicochemical; conditions: water bath 60, 75 and 90° C. for 30 min
Experimental: Experimental method: The newly prepared free quercetin and quercetin-loaded composite nanoparticle dispersions were placed into glass-sealed bottles and heated in a water bath at 60, 75 and 90° C. for 30 min, respectively. It was then immediately cooled to room temperature at 25° C., and the amount of quercetin remaining in the sample was determined. The retention rate (%) of quercetin was calculated according to the following formula: […]

[5] = Effect of light (UV 253.7 nm) on stability of quercetin (retention rate); type: physicochemical; conditions: after 210 min of ultraviolet light irradiation
Experimental: Experimental method: The freshly prepared free quercetin and quercetin-loaded composite nanoparticle dispersions were taken into transparent glass bottles in equal volume. It was then placed in a light cabinet of 0.24 m^3 and exposed to light with a wavelength of 253.7 nm, which was generated by a UV lamp with a power of 20 W. After exposure to light for 0, 30, 60, 90, 150, and 210 min, the stability of quercetin in different samples was studied, the residual quercetin content in the samples was determined, and the retention rate of quercetin (%) was calculated according to the following formula: […]

With `O=c1c(O)c(-c2ccc(O)c(O)c2)oc2cc(O)cc(O)c12` [quercetin] the “DPPH free radical scavenging rate” value [1] was 94.52%, the “solubility of quercetin in water” value [2] was 7.05 µg/mL and the “quercetin released in the digestive juice” value ([3]; after subsequent simulated intestinal digestion) was 90.09%. The “release rate of quercetin” value ([3]; 60 min) was 64.06%, the “release rate of quercetin” value ([3]; first 30 min) was 42.36% and the “thermal stability of quercetin” value [4] was “poor thermal stability”. The “retention rate of quercetin” value [5] was 60.08%.
